The numbers were not newly measured in patent US6462026B1, “Bicyclic leucomycins” (Enanta Pharmaceuticals, Inc., priority 2001, dated 2002), which cites them from elsewhere.

For one data set, the system named is Gram-negative bacteria. The note with it: relative to leucomycin A5, josamycin and midecamycin.
The conditions of data set [1]: monkeys; compared with other 3″-O-acyl derivatives of leucomycin A5.
For data set [2] the following is noted: dogs; compared with other 3″-O-acyl derivatives of leucomycin A5.
The conditions of data set [3]: parent compound rokitamycin.
For data set [4] the following is noted: metabolites isolated from urine and plasma of adults given oral josamycin.

Where two headings read alike, the source gives them in different places.

Take `CCCC(=O)O[C@H]1[C@H](C)O[C@@H](O[C@H]2[C@H](N(C)C)[C@@H](O)[C@H](O[C@H]3[C@@H](CC=O)C[C@@H](C)[C@@H](O)/C=C/C=C/C[C@@H](C)OC(=O)C[C@@H](O)[C@@H]3OC)O[C@@H]2C)C[C@@]1(C)OC(=O)CC` [rokitamycin, 3″-O-propionyl leucomycin A5]: the “in vitro activity against Gram-negative bacteria” value in the data set with Gram-negative bacteria is “twice as high”. The serum levels result in data set [1] and in data set [2] was “highest serum levels” each time. As for `CCC(=O)O[C@H]1[C@H](C)O[C@@H](O[C@H]2[C@H](N(C)C)[C@@H](O)[C@H](O[C@H]3[C@@H](CC=O)C[C@@H](C)[C@@H](O)/C=C/C=C/C[C@@H](C)OC(=O)C[C@@H](O)[C@@H]3OC)O[C@@H]2C)C[C@@]1(C)O` [Leucomycin A7], the “in vitro potency relative to the parent compound” value in data set [3] was “one-half”. Take β-hydroxyisovaleryl josamycin: the antimicrobial activity result in data set [4] is “poor antimicrobial activity”. For the molecule `COC1C(O)CC(=O)OC(C)CC=CC=CC(=O)C(C)CC(CC=O)C1OC1OC(C)C(OC2CC(C)(O)C(OC(=O)CC(C)C)C(C)O2)C(N(C)C)C1O` (centres unmarked) [Niddamycin], the “antibacterial activity in vitro” value in the data set on Mycoplasma spp. and with Gram-positive bacteria was “good antibacterial activity” each time. With demycarosyl josamycin, in data set [4], the antimicrobial activity entry was “inactive”.

As to 5-hydroxyjosamycin, the antimicrobial activity result in data set [4] was “poor antimicrobial activity”. With “4″-debutyryl leucomycin A5 [Lecomycin V]”, the “in vitro potency relative to the parent compound” value in data set [3] is on record as “one-tenth”. For the molecule `COC1C(OC(C)=O)CC(=O)OC(C)CC=CC=CC(O)C(C)CC(CC=O)C1OC1OC(C)C(OC2CC(C)(O)C(O)C(C)O2)C(N(C)C)C1O` (centres unmarked) [desisovaleryl josamycin], the antimicrobial activity entry in data set [4] was “inactive”.
